What was measured:
[1] = Effect of UVA irradiation on the absorbance spectrum of DOX (350-600 nm; KDOX at 480 nm); format: physicochemical
P388 cells = test: In vitro cell culture assay: growth inhibitory effect of UVA-irradiated DOX solutions; format: cell-based, murine; conditions: UVA effect on DOX
Protocol: Cell culture was carried out as previously described (Ramu et al. [1984] Cancer Res., 44:144). Briefly, P388 murine leukemia cells (i.e., P388D1 available from the ATCC; […] An inoculum of cells was transferred to fresh medium once every 4 days to maintain exponential growth. […] Drug solutions (0.2 ml/well) in 24 well culture clusters without the lid were irradiated in a laminar flow hood with 3 Blacklight Blue 40 W lamps (Vilber Lourmat, Marne la Vallee, France).

[2] = test system: P388 or P388/ADR cell lines; test: Effect of catalase on the growth inhibitory effect of DOX; format: cell-based, murine; conditions: 30 U/ml catalase
[3] = test system: P388 cells and P388/ADR cells; test: Catalase protection of cells from UVA irradiation; format: cell-based, murine; conditions: 0.01 to 100 U/ml catalase in PBS or RPMI 1640

Row | Compound | effectiveness in mediating the UVA inactivation of DOX compared with riboflavin ([1]; in the presence or absence of DABCO) | raise of concentration needed to obtain an effect comparable to riboflavin or FMN (P388 cells) | effect on the rate of destruction of DOX by UVA irradiation ([1]; 150 units/ml catalase, 20 μM DOX in RPMI medium 1640) | interference with the growth inhibitory effect of DOX [2] | protection of cells from damage (inhibition of growth) by protracted UVA irradiation [3]
1 | Cc1cc2nc3c(=O)[nH]c(=O)nc-3n(C[C@H](O)[C@H](O)[C@H](O)COP(=O)(O)OP(=O)(O)OC[C@H]3O[C@@H](n4cnc5c(N)ncnc54)[C@H](O)[C@@H]3O)c2cc1C [FAD, flavin adenine dinucleotide] | not as effective as riboflavin | 5 fold |  |  | 
2 | catalase |  |  | did not affect the rate of destruction of DOX | does not interfere with the growth inhibitory effect of DOX | protected the cells from damage

From US20010056085A1, “Methods of using vesicant drug formulations” (priority 1996, published 2001)
